Experimental findings from patent US8906897B2, “Antimicrobial agents based on hemin derivatives” (Obschestvo S Ogranichennoi Otvetstvennostiyu …, priority 2009, dated 2014) are described below.

For series [1], the system named is Enterococcus faecalis No. 559. The experiment in a line: Specific activity against resistant bacterial strains. As to conditions: Ent. faecalis 559; 24 h, 36° C. The class given is cell-based. Here is the method: (§1) The tested agents were water-soluble hemin derivatives (compounds VII and XVIII) or DMSO-soluble derivatives (compounds VIII, XV, and XIV). Vancomycin was the reference compound. Each compound was tested in three replicas.
(§2) Sterile single-use flat-bottomed 96-well plates, Petri dishes, pipettes, tips, and test tubes (Pan-Eco, Moscow) were used in the study.
(§3) The nutritional media used were as follows. A working Mueller Hinton broth was prepared from dry media (Mueller Hinton broth, Acumedia, Baltimore) and sterilized by autoclaving at 121° C. for 15 min.
(§4) Staphylococcus aureus was cultured on the Tripticase Soy Agar (BBL) commercially available dry medium. Enterococcus faecalis was cultured on the Columbia Agar Base (BBL) commercially available dry medium. These media were sterilized by autoclaving at 121° C. for 15 min.
(§5) Bacterial inoculum was fixed and equal to 5×10^5 CFU/mL.
(§6) For water-soluble compounds, wells from 2nd through 8th were added with the solvent (water) in an amount of 15 μL per well, then the 1st well was added with 30 μL of the stock solution of the tested compound in water with a concentration of 1×10^3M, and the concentration was adjusted to 0.007×10^3 M by serial twofold dilutions. A 10-μL portion was taken from every well, and 190 μL of the bacterial culture (10^5 CFU) was added per well.
(§7) For DMSO-soluble compounds, wells from 2nd through 8th were added with the solvent (DMSO) in an amount of 10 μL per well, then the 1st well was added with 20 μL of the stock solution of the tested compound in […] with a concentration of 5×10^3M, and the concentration was adjusted to 0.039×10^3 M by serial twofold dilutions. A 2-μL portion was taken from each well, and 198 μL of the bacterial culture (10^5 CFU) was added per well.
(§8) The control comprised wells free of tested compounds (culture growth control). In addition, purity control of nutritional media and solvents was used. Plates were incubated in a thermostat at 36° C. for 24 hours.
(§9) Culture growth was evaluated visually by comparison of how microorganisms grew in the presence of tested compounds and in the absence of them. MSC (the minimal suppressing concentration) was set equal to the last dilution of a tested agent which suppressed bacterial culture growth.

In series [2] the test system is Staphylococcus aureus No. 100 KC. The description is as above. In kind it is cell-based. To be noted: St. aureus 100 KC; 24 h, 36° C. Here is the method:
as §1, §2, §3, §4, §5, §6, §7, §8, §9

In series [3] the test system is Staphylococcus aureus No. 25923 ATCC. The series is described as above. As to conditions: St. aureus 25923; 24 h, 36° C. The class given is cell-based. How it is done:
as §1, §2, §3, §4, §5, §6, §7, §8, §9

Series [4] relates to Staphylococcus epidermidis No. 533. The description is as above. The class given is cell-based. As to conditions: St. epiderm 533; 24 h, 36° C. How it is done:
as §1, §2, §3, §4, §5, §6, §7, §8, §9

A further series concerns Candida albicans No. 927. The experiment in a line: Antifungal activity, culture growth with pH indicator. In kind it is cell-based. Details: key to Test culture growth at various dilutions of the agent: (−) No growth; the indicator is blue; (±) Weak growth; the indicator is yellow, but the precipitate of grown cells looks as a diffuse spot; (+) Strong growth; the indicator is yellow, and the cell precipitate looks as a compact spot. In a few lines:
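Museum strains grown one day on glucose-peptone-yeast medium at 32° C; compounds two-fold serially diluted (DMSO ≤5% for insoluble ones) in synthetic medium with Bromocresol Blue, ~10^3 CFU/mL. Growth read as blue-to-yellow shift (pH 5.5→4.5) after 1 h at 32° C with stirring, then 27° C: C. neoformans 2 and 5 days, C. albicans 1 and 4 days.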

Series [5] in a line: Solubility of tested agents (water / DMSO). As to conditions: water or DMSO.
For series [6], the system named is Cryptococcus neoformans No. 3465. The experiment in a line: Antifungal activity, culture growth with pH indicator. Details: key: (−) No growth; the indicator is blue; (±) Weak growth; the indicator is yellow, but the precipitate of grown cells looks as a diffuse spot; (+) Strong growth; the indicator is yellow, and the cell precipitate looks as a compact spot. The class given is cell-based. How it is done:
The subjects of action were Cryptococcus neoformans No. 3465 museum strain cells and Candida albicans No. 927 museum strain cells grown for one day on a glucose-peptone-yeast medium at 32° C. The reference compounds were the following antimycotics: pimafucin, amphotericin, and fluconazole.
Experiments were carried out on round-bottomed 96-well plates (Lenmedpolimer) in two replicas. To the first column (0), added was 10 μL of the stock solution of a water-soluble agent with concentrations of 10^−2 to 10^−3 mol/L; to the second column, added was also the same 10 μL plus 10 μL of the solvent corresponding to the given compound, suspended, 10 μL was transferred to the next well, and so on to the 8th well of the row. Stock solutions of water-insoluble compounds of general formula (I) (compounds V, VIII, XII, XIII, XIV, and hemin) were prepared in DMSO and were diluted with DMSO and the medium. DMSO concentrations in the reaction mixture in a well were ≦5%.
Then, to every well added was 190 μL of a Cr. neoformans cell culture suspension in a synthetic nutritional medium (so that the final cell concentration was approximately 10^3 CFU/mL), this medium containing Bromocresol Blue as a pH-indicator (pH: 5.5; indicator color: blue). As pH reduced to 4.5, the indicator in the culture changed its color to yellow, thereby indicating fungal cell growth. The synthetic medium comprised the following components: salts, amino acids, microelements, vitamins, an antibiotic, and glucose (30 components altogether) [Yarrow, D., “Methods for the Isolation, Maintenance and Identification of Yeasts,” in: The Yeasts. A Taxonomic Study, Ed. by Kurtsman, C. P, and Fell, M., Elsevier, 1998, pp. 77-100]. After being inoculated with a Cr. neoformans cell suspension, the plate was incubated at 32° C. for 1 h with stirring, then transferred to a stationary thermostat and incubated for two and five days at 27° C. After being inoculated with a C. albicans cell suspension, the plates were incubated for 1 h at 32° C. with stirring, then transferred to a stationary thermostat and incubated for one and four days at 27° C.

Where [7] appears, read: dilution : 16 of 5.00 × 10^−5 M.
The mark [8] stands for this setting: dilution : 32 of 5.00 × 10^−5 M.
The mark [9] stands for this setting: dilution : 64 of 5.00 × 10^−5 M.
Where [10] appears, read: dilution : 128 of 5.00 × 10^−5 M.

Entries after “also recorded” stand apart in the source; their conditions may differ. Where only a bound is given, the exact number is not on record here.

For the compound `C=CC1=C(C)c2cc3[n-]c(cc4nc(cc5[n-]c(cc1n2)c(C)c5CCC(=O)NCCO)C(CCC(=O)NCCO)=C4C)c(C)c3C=C.[Cl-].[Fe+3]` [Compound XIV, Protohemin IX 6,7-bis-N-(2-Hydroxyethyl)amide], the “MICs for hemin derivatives against Gr+ strains” value (“MICs for hemin derivatives” below) in series [1] is 6.25 µM; in series [2], more than 50 µM; in series [3], 5.21 µM; in series [4], 5.21 µM. The “Test culture growth at various dilutions of the agent” value with Candida albicans No. 927 (dilution 0: 1 × 10^−4 M) is “±”; in the series with Candida albicans No. 927 (dilution : 2 of 1 × 10^−4 M), “+”; in the series with Candida albicans No. 927 (dilution : 4 of 1 × 10^−4 M), “+”; in the series with Candida albicans No. 927 (dilution : 8 of 1 × 10^−4 M), “+”; in the series on Candida albicans No. 927 (dilution : 16 of 1 × 10^−4 M), “+”; in the series with Candida albicans No. 927 (dilution : 32 of 1 × 10^−4 M) it was “+”. Besides, the “Test culture growth at various dilutions of the agent” value in the series with Candida albicans No. 927 (dilution : 64 of 1 × 10^−4 M) is given as “+”. The “solubility (in words)” value in series [5] was “DMSO-soluble; also recorded: water-insoluble”.

Consider `C=CC1=C(C)c2cc3[n-]c(cc4nc(cc5[n-]c(cc1n2)c(C)c5CCC(=O)N[C@@H](CCC(=O)N[C@@H](CCCNC(=N)N)C(=O)OC)C(=O)N[C@@H](CCCNC(=N)N)C(=O)OC)C(CCC(=O)N[C@@H](CCC(=O)N[C@@H](CCCNC(=N)N)C(=O)OC)C(=O)N[C@@H](CCCNC(=N)N)C(=O)OC)=C4C)c(C)c3C=C.[Cl-].[Fe+3]` [Compound XVIII, 6,7-bis[bis(N^α-L-Arginyl Methyl Ester)-L-Glutamyl]-Protohemin IX], for which the “MICs for hemin derivatives” value turned out to be 0.78 µM in series [1], 1.56 µM in series [2], 0.78 µM in series [3] and 0.78 µM in series [4]. Besides, the “Test culture growth at various dilutions of the agent on day 2” value (“Test culture growth … on day 2” for short) in series [6] (dilution 0: 5.00 × 10^−5 M) is “−”; in series [6] (dilution : 2 of 5.00 × 10^−5 M), “−”; in series [6] (dilution : 4 of 5.00 × 10^−5 M), “−”; in series [6] (dilution : 8 of 5.00 × 10^−5 M) it was “−”; in series [6] (setting [7]), “+”; in series [6] (setting [8]), “+”. Moreover, the “Test culture growth … on day 2” value in series [6] (setting [9]) and in series [6] (setting [10]) was “+” in each case. Besides, the “concentration with practically fungicidal effect” value in the series with Candida albicans No. 927 (control inoculations from wells on day 1 to 4 post-exposure) is reported as “about 5×10^−5 M”. Also, the “Test culture growth at various dilutions of the agent” value with Candida albicans No. 927 (dilution 0: 1 × 10^−4 M) was “−”; in the series with Candida albicans No. 927 (dilution : 2 of 1 × 10^−4 M), “−”; in the series with Candida albicans No. 927 (dilution : 4 of 1 × 10^−4 M), “−”; in the series on Candida albicans No. 927 (dilution : 8 of 1 × 10^−4 M), “±”; in the series with Candida albicans No. 927 (dilution : 16 of 1 × 10^−4 M), “±”; with Candida albicans No. 927 (dilution : 32 of 1 × 10^−4 M), “±”. The “Test culture growth at various dilutions of the agent” value with Candida albicans No. 927 (dilution : 64 of 1 × 10^−4 M) is on record as “±”. For the same compound, in series [5], the “solubility (in words)” value is given as “water-soluble”.

In the case of `C=CC1=C(C)c2cc3[n-]c(cc4[n-]c(cc5nc(cc1n2)C(C)=C5C=C)c(C)c4CCC(=O)O)c(CCC(=O)O)c3C.[Cl-].[Fe+3]` [Hem, hemin], the “MICs for hemin derivatives” value in series [1], in series [2], in series [3] and in series [4] was more than 10 µM throughout. The “Test culture growth … on day 2” value in series [6] (dilution 0: 5.00 × 10^−5 M), in series [6] (dilution : 2 of 5.00 × 10^−5 M), in series [6] (dilution : 4 of 5.00 × 10^−5 M), in series [6] (dilution : 8 of 5.00 × 10^−5 M), in series [6] (setting [7]) and in series [6] (setting [8]) was “±” each time. Further, the “Test culture growth … on day 2” value in series [6] (setting [9]) and in series [6] (setting [10]) was “+” each time. In addition, the “Test culture growth at various dilutions of the agent” value in the series on Candida albicans No. 927 (dilution 0: 1 × 10^−4 M) is “±”; with Candida albicans No. 927 (dilution : 2 of 1 × 10^−4 M) it was “+”; in the series with Candida albicans No. 927 (dilution : 4 of 1 × 10^−4 M), “+”; in the series with Candida albicans No. 927 (dilution : 8 of 1 × 10^−4 M), “+”; in the series with Candida albicans No. 927 (dilution : 16 of 1 × 10^−4 M) it was “+”; with Candida albicans No. 927 (dilution : 32 of 1 × 10^−4 M), “+”. Besides, in the series with Candida albicans No. 927 (dilution : 64 of 1 × 10^−4 M), the “Test culture growth at various dilutions of the agent” value is on record as “+”. Besides, the “solubility (in words)” value in series [5] is recorded as “water-insoluble”.

In the case of `C=CC1=C(C)c2cc3[n-]c(cc4nc(cc5[n-]c(cc1n2)c(C)c5CCC(=O)N[C@@H](CO)C(=O)OC)C(CCC(=O)N[C@@H](CO)C(=O)OC)=C4C)c(C)c3C=C.[Cl-].[Fe+3]` [VIII], the “MICs for hemin derivatives” value in series [1] amounted to 3.12 µM; in series [2], 6.25 µM; in series [3], 2.6 µM; in series [4], 5.21 µM. The “Test culture growth … on day 2” value in series [6] (dilution 0: 5.00 × 10^−5 M) is reported as “±”; in series [6] (dilution : 2 of 5.00 × 10^−5 M), “±”; in series [6] (dilution : 4 of 5.00 × 10^−5 M), “±”; in series [6] (dilution : 8 of 5.00 × 10^−5 M) it was “+”; in series [6] (setting [7]), “+”; in series [6] (setting [8]), “+”. Also, the “Test culture growth … on day 2” value in series [6] (setting [9]) and in series [6] (setting [10]) was “+” throughout. In addition, the “Test culture growth at various dilutions of the agent” value in the series on Candida albicans No. 927 (dilution 0: 1 × 10^−4 M) was “±”; in the series with Candida albicans No. 927 (dilution : 2 of 1 × 10^−4 M), “±”; with Candida albicans No. 927 (dilution : 4 of 1 × 10^−4 M) it was “±”; in the series on Candida albicans No. 927 (dilution : 8 of 1 × 10^−4 M), “+”; in the series on Candida albicans No. 927 (dilution : 16 of 1 × 10^−4 M) it was “+”; with Candida albicans No. 927 (dilution : 32 of 1 × 10^−4 M), “+”. Besides, the “Test culture growth at various dilutions of the agent” value in the series on Candida albicans No. 927 (dilution : 64 of 1 × 10^−4 M) is recorded as “+”. The “solubility (in words)” value in series [5] was “DMSO-soluble; also recorded: water-insoluble”.
